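Test compounds were applied to cells in 96-well plates for 48 hours at 5 doses. GI50 = concentration required for 50% inhibition of growth. Definition used: TGI = concentration required for complete inhibition of growth.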
How the values were obtained:
Assay in all cases: DTP human tumour cell line panel, 48 h
PC-3 prostate = test system: PC-3 prostate
MCF7 breast = test system: MCF7 breast
HCT-116 colon = test system: HCT-116 colon
HS 578T breast = test system: HS 578T breast
BT-549 breast = test system: BT-549 breast

Row | Compound | GI50 (PC-3 prostate) [µM] | TGI (PC-3 prostate) [µM] | GI50 (MCF7 breast) [µM] | TGI (MCF7 breast) [µM] | GI50 (HCT-116 colon) [µM] | TGI (HCT-116 colon) [µM] | GI50 (HS 578T breast) [µM] | TGI (HS 578T breast) [µM] | GI50 (BT-549 breast) [µM] | TGI (BT-549 breast) [µM]
1 | COc1cc(C)c(N(C)C(=O)CN(C)C)cc1Nc1nc(Nc2cccc(F)c2C(N)=O)c2cc[nH]c2n1 | > 25 | > 25 | 2.7 | > 25 | 15.7 | > 25 | > 17.5 | > 25 | 18.4 | > 25
2 | CCCCCn1ncc(-c2c(O)c(O)cc3c(O)c(-c4c(C)cc5c(-c6cnn(CCCCC)n6)c(O)c(O)cc5c4O)c(C)cc23)n1 | 0.147 | 2.53 | 0.0874 | 4.24 | 0.0262 | 4.07 | 0.152 | 8.87 | 0.0913 | 5.09
3 | CN([N-]C(=O)CC(=O)[N-]N(C)C(=S)c1ccccc1)C(=S)c1ccccc1.[Cu+2] | 0.0101 | 0.0689 | < 0.01 | 0.0284 | < 0.01 | 0.014 | 0.0851 | 0.619 | 0.138 | 0.271
4 | COc1cc2c(c(OC)c1OC)C(=O)c1c-2n(CCCN)c(=O)c2cc([N+](=O)[O-])ccc12 | 0.736 | 3.43 | 0.25 |  | 0.128 | 0.274 | 2 | 4.99 | 1.76 | 3.53
5 | O=C1c2ccccc2C(=O)c2c1c(NCCNCCO)c1cc[nH]c1c2NCCNCCO | 3.22 | > 25.6 | 1.35 |  | 1.27 | > 21.5 | 1.93 | 11.1 | 2.75 | 8.94
6 | CN1CCN(c2ccc3nc(-c4ccc5nc(-c6ccc(C(F)(F)F)cc6)[nH]c5c4)[nH]c3c2)CC1 | 1.66 | 3.79 | 0.578 | 2.19 | 1.28 | 2.6 | 2.03 | 4.49 | 5.91 | 22.5
7 | CCCN(CCC)c1ccc(C=O)c(OC)c1 | 29.1 | > 100 | 19.1 | 81.3 | 25.5 | > 100 | 15.5 | 94.4 | 22 | 80.2
8 | S=C1SC2(CCCCCC2)NC2=C1CCCCC2 |  | > 100 |  | 65 |  | > 100 |  | 47.6 |  | 
9 | O=c1c2ccccc2c(C=NCCNCCO)c2oc3ccccc3n12 | 13.9 | 34.1 |  |  |  |  |  |  |  | 
10 | COc1ccc(S(=O)(=O)N2CCCCC2)cc1NC(=O)c1[nH]c(C)c2c1CCCCC2=O | 2.6 | > 100 | 0.666 | > 100 | 1.32 | 19.3 | 1.45 | > 100 | 4 | > 100
11 | CC(C)NCCCNC1=C(Cl)C(=O)c2ccccc2C1=O | 3.92 | 20.7 | 4.13 | 17.5 | 2.12 | 5.28 | 2.93 | 9.02 | 5.36 | 18.2
12 | CC(C)(C)c1ccc(NC(=O)c2cc(=O)c3ccccc3[nH]2)c(C(C)(C)C)c1O | 2.6 | 8.29 | 3.35 | 12.9 | 3.71 | 13.4 | 6.46 | 39 | 6.77 | 19.9
13 | Cc1occc1C(=S)Nc1ccc(Cl)c(C(=O)OCC2CC2)c1 |  | > 100 |  | > 100 |  | > 100 |  | > 100 |  | 81.5
14 | Cc1ccc2nc(NC(=O)CSC(=S)N3CCN(Cc4ccccc4)CC3)sc2c1 | > 100 | > 100 | 64.5 | > 100 | > 96.7 | > 100 | > 100 | > 100 | > 100 | > 100
15 | CC(C)(C)OC(=O)N(CCCn1c2c(c3ccccc3c1=O)C(=O)c1ccccc1-2)CCN(CCCn1c2c(c3ccccc3c1=O)C(=O)c1ccccc1-2)C(=O)OC(C)(C)C | > 50 | > 50 | 21.3 | > 50 | 14.1 | > 50 | 15.8 | > 50 | > 50 | > 50
16 | COc1cc2c(C#N)n3c(c2cc1OC)C(=O)C(c1ccccc1)Oc1ccccc1-3 (configuration not stated) |  |  |  |  | 3.23 | > 100 | 4.62 | 65.5 | 1.97 | 5.54
17 | CCOc1ccc2c(-c3ccnc(Nc4cccc(C(F)(F)F)c4)n3)cnn2n1 | > 16.1 | > 25 | 0.979 | > 12.2 | 6.04 | 15.2 | > 20.2 | > 25 | > 23.8 | > 25

Row | Compound | GI50 (PC-3 prostate) [µM] | TGI (PC-3 prostate) [µM] | GI50 (MCF7 breast) [µM] | TGI (MCF7 breast) [µM] | GI50 (HCT-116 colon) [µM] | TGI (HCT-116 colon) [µM] | GI50 (HS 578T breast) [µM] | TGI (HS 578T breast) [µM] | GI50 (BT-549 breast) [µM] | TGI (BT-549 breast) [µM]
18 | CO/N=C(\COc1ccc2c(=O)cc(-c3ccccc3)oc2c1)c1ccc(OC)cc1 | > 100 | > 100 |  |  | > 100 | > 100 | > 100 | > 100 | > 100 | > 100
19 | C=C(C)[C@@H]1CC[C@]2(C)[C@H](CC=C3[C@@H]4CC(C)(C)CC[C@]4(C(=O)OC)CC[C@]32C)[C@@]1(C)CC/C(N)=N/O | 1.91 | 7.81 | 2.13 | 5.3 | 1.61 | 3.05 | 2.02 | 4.97 | 1.93 | 4.12
20 | CC(=O)OC1CC(C)c2c1ncnc2N1CCN(C(=O)OC(C)(C)C)CC1 (configuration not stated) | 38.7 | > 100 | 39.1 | > 100 | 38.1 | > 100 | 83.5 | > 100 | 61 | > 100
21 | COc1cc2c3c(n(CCCn4cccn4)c(=O)c2cc1OC)-c1cc2c(cc1C3=O)OCO2 | 16.3 | > 100 | 0.523 | > 55.2 | 1.47 | 15.9 | 22.7 | > 90.7 | 3.4 | > 70
22 | Nc1nc(N)c2ncn(Cc3c(Cl)cccc3Cl)c2n1 |  | > 100 |  | > 100 |  | > 100 |  | > 100 |  | > 100
23 | COc1ccccc1NC(=O)N/C(N)=N/c1nc2ccccc2s1 | 0.0906 | > 100 | 0.0401 | > 100 | 0.0497 | > 100 | 0.0695 | > 100 | 0.334 | > 100
24 | O=c1cc(-c2ccccc2)oc2cc(OCc3cn(Cc4ccc(F)cc4)nn3)cc(O)c12 |  |  |  |  | 5.91 | > 100 | 6.26 | > 100 | 7.98 | > 100
25 | Cc1cc(C)c(S(=O)(=O)Oc2ccccc2[N+](=O)[O-])c(C)c1 | 3.31 | > 100 | 2.81 | > 100 | 1.44 | > 100 | 1.42 | 5.24 | 3.19 | > 100
26 | COc1ccc(CNCCCN2C(=O)c3ccc4c5c(ccc(c35)C2=O)C(=O)N(CCCNCCCCNCCCN)C4=O)c(OC)c1OC | 2.4 | 26.3 | 0.355 | 1.62 | 0.534 | 3.77 | 7.52 | 43.4 | 6.13 | 21.5
27 | CCN(CCc1ccc(F)cc1)c1ccc(CO)c(Cl)c1 | 10.9 | 24.8 | 4.72 | 19.9 | 1.85 | 13.5 | 11.5 | 32.4 | 11.4 | 23.8
28 | COc1cc(/C=C\c2cc(/C=C\c3ccc(O)c(OC)c3)n(C(=O)Nc3ccc(C(F)(F)F)cc3)n2)ccc1O | 3.21 | 13.5 | 1.97 | 10.7 | 1.51 | 2.94 | 5.1 | 60.6 | 1.96 | 3.67
29 | CC(=O)OC1C(O)COC(Oc2c(C)c3c4c(c2O)[C@@H](C)CC[C@@H]4[C@@H](C)C[C@H]3C=C(C)C)C1O (some centres not stated) | 11.3 | 26.3 | 17.2 | > 100 | 21.1 | > 100 | 16.8 | 37.2 |  | 
30 | COc1cc([N+](=O)[O-])c(S(=O)(=O)O)cc1-n1nc(-c2ccccc2)n[n+]1-c1cc(S(=O)(=O)[O-])c([N+](=O)[O-])cc1OC |  | > 100 |  | > 100 |  | > 100 |  | > 100 |  | 
31 | S=C(S)NCCCn1ccnc1 |  | > 100 |  | > 100 |  | > 100 |  |  |  | > 100
32 | COc1ncnc2c1ncn2C/C(Br)=C(\Br)CCl | 9.12 | 23.3 | 1.43 | 3.06 | 1.73 | 3.49 |  |  |  | 
33 | C[C@]1(O)CC(=O)[C@]2(O)C3=C(C=C[C@]2(O)C1)C(=O)c1c(O)cccc1C3=O | 2.42 | 10.1 |  |  | 0.649 | 2.56 | 2.74 | 14.7 | 2.62 | 9.44
34 | c1ccc(CN2CCC3(CC2)ONC2=NCCN23)cc1 | 49.5 | > 100 | 71.3 | > 100 | 49.1 | > 100 |  |  | > 100 | > 100
